Consider three compounds from patent US20220144775A1, “HYDRAZIDE COMPOUND AND KINASE INHIBITOR” (NISSAN CHEMICAL CORPORATION, priority 2019, published 2022).

Where only a bound is given, the exact number is not on record here.

One test concerns the target T1, LATS1 (Homo sapiens, UniProt O95835).
T1 construct: purchased Carna Biosciences
T1 sequence (O95835 1-1130): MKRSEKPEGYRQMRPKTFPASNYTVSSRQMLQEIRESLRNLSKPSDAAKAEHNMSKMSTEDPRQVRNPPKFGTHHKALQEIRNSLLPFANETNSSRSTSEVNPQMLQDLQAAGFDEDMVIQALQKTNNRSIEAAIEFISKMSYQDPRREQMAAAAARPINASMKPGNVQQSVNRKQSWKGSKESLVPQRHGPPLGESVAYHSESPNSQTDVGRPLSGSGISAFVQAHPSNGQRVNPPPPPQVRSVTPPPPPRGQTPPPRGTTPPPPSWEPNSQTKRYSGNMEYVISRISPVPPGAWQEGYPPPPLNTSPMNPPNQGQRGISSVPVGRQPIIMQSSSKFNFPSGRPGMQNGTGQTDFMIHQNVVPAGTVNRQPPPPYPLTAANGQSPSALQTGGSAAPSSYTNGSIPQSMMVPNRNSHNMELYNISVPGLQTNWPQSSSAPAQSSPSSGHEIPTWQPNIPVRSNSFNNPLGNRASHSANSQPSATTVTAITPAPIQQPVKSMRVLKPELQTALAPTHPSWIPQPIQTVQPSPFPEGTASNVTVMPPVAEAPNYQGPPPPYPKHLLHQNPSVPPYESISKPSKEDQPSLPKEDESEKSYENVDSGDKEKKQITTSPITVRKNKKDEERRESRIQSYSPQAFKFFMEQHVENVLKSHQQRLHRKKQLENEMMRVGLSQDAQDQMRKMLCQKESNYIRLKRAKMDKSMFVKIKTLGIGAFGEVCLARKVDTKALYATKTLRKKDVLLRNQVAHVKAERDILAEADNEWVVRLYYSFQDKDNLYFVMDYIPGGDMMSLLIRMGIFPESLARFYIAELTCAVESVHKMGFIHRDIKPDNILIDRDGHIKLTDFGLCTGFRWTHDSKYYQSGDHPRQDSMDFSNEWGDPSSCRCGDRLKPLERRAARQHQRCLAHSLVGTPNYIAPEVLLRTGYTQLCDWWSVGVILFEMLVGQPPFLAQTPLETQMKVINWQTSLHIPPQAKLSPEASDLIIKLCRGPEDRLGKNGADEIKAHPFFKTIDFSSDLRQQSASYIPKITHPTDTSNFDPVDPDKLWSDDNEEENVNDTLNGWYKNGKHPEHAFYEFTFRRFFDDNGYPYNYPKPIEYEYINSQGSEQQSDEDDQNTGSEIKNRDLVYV
Kind of test: Kinase inhibitory activity against LATS1 (ADP quantification). The format is biochemical. The settings on record: ATP 400 μM, read-out: kinase inhibitory rate; for inhibition at 1 µM: final concentration 1000 nM. As to the method: (§1) Evaluation of the inhibitory activity (calculation of kinase inhibitory rate) of the compound of the present invention against LATS1 and LATS2 (manufactured by Carna Biosciences) was performed. The activity was measured using the Kinase Assay method described below. The test concentration of the compound of the present invention was set such that the final concentration was 100 nM or 1000 nM.
(§2) As the analysis method of the data, the mean signal of the control well containing reaction components other than the compound of the present invention was set to 0% inhibition, the mean signal without enzyme addition was set to 100% inhibition, and the inhibition rate was calculated from the mean signal of 2 wells of each compound.
(§3) 2 μL of a compound of the present invention solution at 2.5-fold concentration, 1 μL of substrate at 5-fold concentration (SGKtide: NH2-CKKRNRRLSVA-COOH, manufactured by SignalChem), ATP (manufactured by Sigma-Aldrich), MgCl2 (manufactured by FUJIFILM Wako Pure Chemical Corporation) solution (final concentration 10 μM, 400 μM and 5 mM, respectively), and 2 μL of kinase solution at 2.5-fold concentration (final concentration of LATS1 or LATS2 5 μg/mL), each prepared with assay buffer (20 mM HEPES, 0.01% Triton X-100, 2 mM DTT, 50 μg/mL BSA, pH 7.5), were mixed in the wells of a polypropylene 384-well plate (manufactured by Greiner Bio-One, #784900) and reacted at room temperature for 5 hr. To the solution was added 5 μL detection solution [Fluorospark (registered trade mark) Kinase/ADP Multi-Assay Kit; manufactured by FUJIFILM Wako Pure Chemical Corporation], and the mixture was reacted at room temperature for 30 min. Successively, 5 μL of a reaction quenching liquid [Fluorospark (registered trade mark) Kinase/ADP Multi-Assay Kit; manufactured by FUJIFILM Wako Pure Chemical Corporation] was added to discontinue the reaction. Thereafter, the ADP concentration of the reaction solution was quantified by EnSpire (manufactured by PerkinElmer) to detect the kinase reaction.

The target in another test is T2, LATS2 (Homo sapiens, UniProt Q9NRM7).
T2 construct: purchased Carna Biosciences
T2 sequence (Q9NRM7 1-1088): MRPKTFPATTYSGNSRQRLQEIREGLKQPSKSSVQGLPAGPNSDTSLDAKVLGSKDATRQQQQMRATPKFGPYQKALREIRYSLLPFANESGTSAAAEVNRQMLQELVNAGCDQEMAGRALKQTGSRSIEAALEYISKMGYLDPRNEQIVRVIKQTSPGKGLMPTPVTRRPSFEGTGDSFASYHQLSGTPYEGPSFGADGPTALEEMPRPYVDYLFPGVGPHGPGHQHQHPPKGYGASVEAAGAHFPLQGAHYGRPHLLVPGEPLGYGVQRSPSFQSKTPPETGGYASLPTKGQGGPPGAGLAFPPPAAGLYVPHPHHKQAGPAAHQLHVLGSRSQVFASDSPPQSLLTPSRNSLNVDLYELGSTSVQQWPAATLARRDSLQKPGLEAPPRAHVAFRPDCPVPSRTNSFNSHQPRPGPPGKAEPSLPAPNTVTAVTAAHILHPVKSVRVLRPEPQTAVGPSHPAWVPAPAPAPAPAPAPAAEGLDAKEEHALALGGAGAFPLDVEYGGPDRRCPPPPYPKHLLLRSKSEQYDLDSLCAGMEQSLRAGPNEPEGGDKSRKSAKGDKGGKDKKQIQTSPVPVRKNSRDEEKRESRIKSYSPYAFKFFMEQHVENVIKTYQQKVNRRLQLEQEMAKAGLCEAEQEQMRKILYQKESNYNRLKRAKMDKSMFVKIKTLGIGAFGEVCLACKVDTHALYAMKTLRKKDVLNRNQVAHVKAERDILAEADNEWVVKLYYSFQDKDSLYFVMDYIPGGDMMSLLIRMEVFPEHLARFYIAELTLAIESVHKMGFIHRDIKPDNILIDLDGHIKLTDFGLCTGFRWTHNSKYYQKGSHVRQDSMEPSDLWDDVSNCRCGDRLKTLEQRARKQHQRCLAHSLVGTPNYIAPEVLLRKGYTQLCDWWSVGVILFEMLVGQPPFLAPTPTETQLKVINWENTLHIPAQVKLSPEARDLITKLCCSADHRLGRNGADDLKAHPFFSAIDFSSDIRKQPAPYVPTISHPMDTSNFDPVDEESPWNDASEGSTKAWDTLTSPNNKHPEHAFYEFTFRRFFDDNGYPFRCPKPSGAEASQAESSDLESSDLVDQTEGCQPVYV
Kind of test: Kinase inhibitory activity against LATS2 (ADP quantification). It is filed as biochemical. The settings on record: final concentration 1000 nM; ATP 400 μM; read-out: kinase inhibitory rate. As to the method: as §1, §2, §3

On to `CC/C(=N\NC(=O)[C@@H](C)Nc1ccc2cccnc2c1)c1ccc(O)c(C)c1O` [A-019, (R,E)-N′-[1-(2,4-dihydroxy-3-methylphenyl)propylidene]-2-(quinolin-7-ylamino)propanehydrazide], for which the inhibition at 0.1 µM on LATS1 (final concentration 100 nM) is no less than 40%. Also, the inhibition at 1 µM at LATS1 and on LATS2 was no less than 40% each time.
For the compound `CC/C(=N\NC(=O)NCc1cccnc1)c1ccc(O)c(C)c1O` [B-001, (E)-2-(1-(2,4-dihydroxy-3-methylphenyl)propylidene)-N-(pyridin-3-ylmethyl)hydrazine-1-carboxamide], the inhibition at 1 µM on LATS1 and at LATS2 was no less than 40% in each case.
With `CC/C(=N\NC(=O)C(C)Oc1cccnc1)c1ccc(O)c(C)c1O` (stereo not shown) [C-001, (E)-N′-(1-(2,4-dihydroxy-3-methylphenyl)propylidene)-2-(pyridin-3-yloxy)propanehydrazide], the inhibition at 1 µM at LATS1 and on LATS2 was no less than 40% throughout.
